From patent US10385022B2, “3-amino-pyridines as GPBAR1 agonists” (HOFFMANN-LA ROCHE INC., priority 2011, dated 2019) come the findings set out here.

pEC50: −log10 of the molar value. Where a name gives a salt, the structure may show the parent alone.

For the assay, the target named is human GPBAR1 receptor (Homo sapiens (Human), UniProt Q8TDU6). Nature of the assay: functional cAMP assay in CHO-dhfr(minus) cells expressing human GPBAR1 receptors. The settings on record: CHO-dhfr(minus) cells expressing human GPBAR1, 30 min at 30° C. It counts as cell-based. The essentials: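 CHO-dhfr- cells were transfected with human GPBAR1, and a clone was chosen by cAMP response to lithocholic acid. EC50 values come from the cAMP read-out; specificity was checked in non-transfected CHO cells.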
human GPBAR1 receptor, sequence (Q8TDU6 whole entry): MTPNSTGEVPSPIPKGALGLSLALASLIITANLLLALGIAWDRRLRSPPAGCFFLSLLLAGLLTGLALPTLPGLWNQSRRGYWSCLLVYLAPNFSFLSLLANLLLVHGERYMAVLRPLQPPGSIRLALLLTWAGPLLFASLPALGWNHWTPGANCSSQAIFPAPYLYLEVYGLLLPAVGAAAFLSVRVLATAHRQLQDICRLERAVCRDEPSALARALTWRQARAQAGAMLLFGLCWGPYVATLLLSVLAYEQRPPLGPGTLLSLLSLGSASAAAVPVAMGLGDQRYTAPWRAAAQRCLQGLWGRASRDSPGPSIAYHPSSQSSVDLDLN
In general terms: cAMP levels reflect the balance of adenylyl cyclase and phosphodiesterase activity.
Take `COc1cc(F)c(F)cc1-c1ccncc1N(CC(F)(F)F)C(=O)c1cc(C(F)(F)F)cc(S(=O)(=O)N(C)C)c1` [Example 140, N-[4-(4,5-Difluoro-2-methoxy-phenyl)-pyridin-3-yl]-3-dimethylsulfamoyl-N-(2,2,2-trifluoro-ethyl)-5-trifluoromethyl-benzamide]: the pEC50 (commonly −log10 of the EC50, conventionally taken in molar units) is 6.91.

As for `Cc1ccc(F)cc1-c1cc(Cl)ncc1N(C)C(=O)c1cc(C(F)(F)F)cc(S(C)(=O)=O)c1` [Example 253, N-[6-Chloro-4-(5-fluoro-2-methyl-phenyl)-pyridin-3-yl]-3-methanesulfonyl-N-methyl-5-trifluoromethyl-benzamide], the negative-log EC50 (pEC50) is 5.52.

In turn, `CS(=O)(=O)CCN(C(=O)c1cc(C(F)(F)F)cc(S(C)(=O)=O)c1)c1cnccc1-c1ccccc1Cl` [Example 288, N-[4-(2-Chloro-phenyl)-pyridin-3-yl]-3-methanesulfonyl-N-(2-methanesulfonyl-ethyl)-5-trifluoromethyl-benzamide] gave a negative-log EC50 (pEC50) of 5.83.

As to `COc1cc(-c2ccncc2N(C)C(=O)c2cc(C(F)(F)F)cc(C(F)(F)F)c2)c(OC)nn1` [Example 54, N-[4-(3,6-Dimethoxy-pyridazin-4-yl)-pyridin-3-yl]-N-methyl-3,5-bis-trifluoromethyl-benzamide], the pEC50 was 5.71.

Take `Cc1ccccc1-c1ccncc1N(C)C(=O)c1cc(Cl)nc(Cl)c1` [Example 120, 2,6-Dichloro-N-methyl-N-(4-o-tolyl-pyridin-3-yl)-isonicotinamide]: the pEC50 is 6.77.

`CCC(=O)CN(C(=O)c1cc(C(F)(F)F)cc(S(C)(=O)=O)c1)c1cnccc1-c1ccc(F)cc1OC` [Example 204, N-[4-(4-Fluoro-2-methoxy-phenyl)-pyridin-3-yl]-3-methanesulfonyl-N-(2-oxo-butyl)-5-trifluoromethyl-benzamide] had a negative-log EC50 (pEC50) of 6.21.

In turn, `NC(=O)CN(C(=O)c1cc(C(F)(F)F)nc(C(F)(F)F)c1)c1cnccc1-c1ccccc1F` [Example 197, N-Carbamoylmethyl-N-[4-(2-fluoro-phenyl)-pyridin-3-yl]-2,6-bis-trifluoromethyl-isonicotinamide] gave a pEC50 of 6.98. This pEC50 is 0.77 log units higher than that of the compound before.

Turning to `COc1cccc(-c2ccncc2N(C)C(=O)c2cc(C(F)(F)F)cc(C(F)(F)F)c2)c1OC` [Example 167, N-[4-(2,3-Dimethoxy-phenyl)-pyridin-3-yl]-N-methyl-3,5-bis-trifluoromethyl-benzamide], the negative-log EC50 (pEC50) was 5.56. This pEC50 is 1.42 log units lower than that of the compound before.

As to `COc1cc(F)ccc1-c1ccncc1N(C)C(=O)c1cc(OC(F)(F)F)cc(S(C)(=O)=O)c1` [Example 252, N-[4-(4-Fluoro-2-methoxy-phenyl)-pyridin-3-yl]-3-methanesulfonyl-N-methyl-5-trifluoromethoxy-benzamide], the pEC50 was 6.77.

The compound `CN(C(=O)c1cc(C(F)(F)F)cc(S(C)(=O)=O)c1)c1cnccc1-c1ccccc1OC1COC1` [Example 272, 3-Methanesulfonyl-N-methyl-N-{4-[2-(oxetan-3-yloxy)-phenyl]-pyridin-3-yl}-5-trifluoromethyl-benzamide] had a negative-log EC50 (pEC50) of 7.19.

Compound `COc1ccc(-c2ccncc2N(C)C(=O)c2cc(C(F)(F)F)cc(C(F)(F)F)c2)cn1` [Example 99, N-(6-Methoxy-[3,4′]bipyridinyl-3′-yl)-N-methyl-3,5-bis-trifluoromethyl-benzamide] gave a negative logarithm of the EC50 (pEC50) of 5.53.

`O=C(c1cc(C(F)(F)F)cc(C(F)(F)F)c1)N(CCO)c1cnccc1-c1ccccc1Cl` [Example 115, N-[4-(2-Chloro-phenyl)-pyridin-3-yl]-N-(2-hydroxy-ethyl)-3,5-bis-trifluoromethyl-benzamide] gave a pEC50 of 7.18.

On to `COc1cc(C(=O)N(C)c2cnccc2-c2ccc(F)cc2OC)cc(C(F)(F)F)n1` [Example 206, N-[4-(4-Fluoro-2-methoxy-phenyl)-pyridin-3-yl]-2-methoxy-N-methyl-6-trifluoromethyl-isonicotinamide], for which the pEC50 is 7.64. Against the preceding compound, the pEC50 is 0.46 log units higher.

Compound `COc1c(F)cccc1-c1ccncc1N(C)C(=O)c1cc(C(F)(F)F)cc(C(F)(F)F)c1` [Example 41, N-[4-(3-Fluoro-2-methoxy-phenyl)-pyridin-3-yl]-N-methyl-3,5-bis-trifluoromethyl-benzamide] gave a pEC50 of 7.05.

In turn, `Cc1ccccc1-c1ccncc1N(C)C(=O)c1cc([N+](=O)[O-])cc(C(F)(F)F)c1` [Example 184, N-Methyl-3-nitro-N-(4-o-tolylpyridin-3-yl)-5-(trifluoromethyl)benzamide] gave a pEC50 of 7.82.

`COc1cc(F)ccc1-c1ccncc1N(C)C(=O)c1cc(C(F)(F)F)cc(S(=O)(=O)C2CN(S(N)(=O)=O)C2)c1` [Example 292, N-[4-(4-Fluoro-2-methoxy-phenyl)-pyridin-3-yl]-N-methyl-3-(1-sulfamoyl-azetidine-3-sulfonyl)-5-trifluoromethyl-benzamide] had a negative-log EC50 (pEC50) of 7.06.

For `COc1cc(F)ccc1-c1ccncc1N(C)C(=O)c1cc(C2COC2)cc(C(F)(F)F)c1` [Example 235, N-[4-(4-Fluoro-2-methoxy-phenyl)-pyridin-3-yl]-N-methyl-3-oxetan-3-yl-5-trifluoromethyl-benzamide], the pEC50 was 7.07.

As for `COc1ccc(-c2ccncc2N(C)C(=O)c2cc(C(F)(F)F)cc(C(F)(F)F)c2)c(C)c1` [Example 27, N-[4-(4-Methoxy-2-methyl-phenyl)-pyridin-3-yl]-N-methyl-3,5-bis-trifluoromethyl-benzamide], the pEC50 is 5.98.

On to `Cc1cc(F)ccc1-c1ccncc1N(C)C(=O)c1cc(C(F)(F)F)cc(C(F)(F)F)c1` [Example 23, N-[4-(4-Fluoro-2-methyl-phenyl)-pyridin-3-yl]-N-methyl-3,5-bis-trifluoromethyl-benzamide], for which the pEC50 is 7.42.

The compound `COc1cccc(F)c1-c1ccncc1N(CC(N)=O)C(=O)c1cc(C(F)(F)F)nc(C(F)(F)F)c1` [Example 199, N-Carbamoylmethyl-N-[4-(2-fluoro-6-methoxy-phenyl)-pyridin-3-yl]-2,6-bis-trifluoromethyl-isonicotinamide] showed a negative-log EC50 (pEC50) of 7.48.

Turning to `CS(=O)(=O)CCN(C(=O)c1cc(C(F)(F)F)cc(C(F)(F)F)c1)c1cnccc1-c1ccccc1Cl` [Example 112, N-[4-(2-Chloro-phenyl)-pyridin-3-yl]-N-(2-methanesulfonyl-ethyl)-3,5-bis-trifluoromethyl-benzamide], the negative logarithm of the EC50 (pEC50) is 6.63.

Turning to `CS(=O)(=O)c1cc(C(=O)N(CC(F)(F)F)c2cnccc2-c2ccccc2OC(F)(F)F)cc(C(F)(F)F)c1` [Example 298, 3-Methanesulfonyl-N-(2,2,2-trifluoro-ethyl)-N-[4-(2-trifluoromethoxy-phenyl)-pyridin-3-yl]-5-trifluoromethyl-benzamide], the pEC50 is 6.10.

In the case of `CN(C(=O)c1cc(C(F)(F)F)cc(S(C)(=O)=O)c1)c1cnccc1-c1ccccc1OC(F)(F)F` [Example 274, 3-Methanesulfonyl-N-methyl-N-[4-(2-trifluoromethoxy-phenyl)-pyridin-3-yl]-5-trifluoromethyl-benzamide], the pEC50 is 7.47.

`COc1cc(F)ccc1-c1ccncc1N(C[C@@H]1CCCOC1)C(=O)c1cc(C(F)(F)F)cc(S(C)(=O)=O)c1` [Example 299, (+)-N-[4-(4-Fluoro-2-methoxy-phenyl)-pyridin-3-yl]-3-methanesulfonyl-N-[1-(tetrahydro-pyran-3-yl)methyl]-5-trifluoromethyl-benzamide] had a pEC50 of 6.02.

Turning to `CC1CCCCN1c1ccncc1N(C)C(=O)c1cc(Cl)cc(Cl)c1` (stereo not shown) [Example 21, 3,5-Dichloro-N-methyl-N-(2-methyl-3,4,5,6-tetrahydro-2H-[1,4′]bipyridinyl-3′-yl)-benzamide hydrochloride salt], the pEC50 is 6.41.

Consider `Cc1ccccc1-c1ccncc1N(C)C(=O)c1cc(Cl)nc(C(F)(F)F)c1` [Example 171, 2-Chloro-N-methyl-N-(4-o-tolyl-pyridin-3-yl)-6-trifluoromethyl-isonicotinamide], for which the negative-log EC50 (pEC50) is 7.25.

Compound `Cc1ccccc1-c1ccncc1N(C)C(=O)c1cc(F)cc(F)c1` [Example 9, 3,5-Difluoro-N-methyl-N-(4-o-tolyl-pyridin-3-yl)-benzamide] showed a negative-log EC50 (pEC50) of 5.91.

In the case of `COC(=O)CN(C(=O)c1cc(C(F)(F)F)cc(S(C)(=O)=O)c1)c1cnccc1-c1cccnc1OC` [Example 180, [(3-Methanesulfonyl-5-trifluoromethyl-benzoyl)-(2-methoxy-[3,4′]bipyridinyl-3′-yl)-amino]-acetic acid methyl ester], the pEC50 was 6.71.

On to `Cc1ccccc1-c1ccncc1N(CC(F)F)C(=O)c1cc(C(F)(F)F)nc(C(F)(F)F)c1` [Example 157, N-(2,2-Difluoro-ethyl)-N-(4-o-tolyl-pyridin-3-yl)-2,6-bis-trifluoromethyl-isonicotinamide], for which the pEC50 is 7.06.

Compound `CC(C)Oc1ncccc1-c1ccncc1N(C)C(=O)c1cc(C(F)(F)F)cc(C(F)(F)F)c1` [Example 46, N-(2-Isopropoxy-[3,4′]bipyridinyl-3′-yl)-N-methyl-3,5-bis-trifluoromethyl-benzamide] had a pEC50 of 6.03.

The compound `COC(=O)CN(C(=O)c1cc(C(F)(F)F)cc(S(C)(=O)=O)c1)c1cnccc1-c1ccccc1F` [Example 213, [[4-(2-Fluoro-phenyl)-pyridin-3-yl]-(3-methanesulfonyl-5-trifluoromethyl-benzoyl)-amino]-acetic acid methyl ester] gave a pEC50 of 6.60.

On to `Cc1ccccc1-c1ccncc1N(C)C(=O)c1cc(C(F)(F)F)ccc1F` [Example 4, 2-Fluoro-N-methyl-N-(4-o-tolyl-pyridin-3-yl)-5-trifluoromethyl-benzamide], for which the pEC50 was 6.61.

Take `CC(C#N)Oc1cc(F)ccc1-c1ccncc1N(C)C(=O)c1cc(C(F)(F)F)cc(C(F)(F)F)c1` (stereo not shown) [Example 53, N-{4-[2-(Cyano-methyl-methoxy)-4-fluoro-phenyl]-pyridin-3-yl}-N-methyl-3,5-bis-trifluoromethyl-benzamide]: the negative-log EC50 (pEC50) is 5.96.

Compound `Cc1cn[nH]c1-c1ccncc1N(C)C(=O)c1cc(C(F)(F)F)cc(C(F)(F)F)c1` [Example 211, N-Methyl-N-[4-(4-methyl-2H-pyrazol-3-yl)-pyridin-3-yl]-3,5-bis-trifluoromethyl-benzamide] had a pEC50 of 6.02.
